The text below walks through data of patent US20260232715A1, “TREATMENT OF PANCREATIC CANCER” (CAN-FITE BIOPHARMA LTD., priority 2023, published 2026).

In general, inhibition refers to how much of the control response was suppressed.

For assay [1], the system named is BxPC-3 cells. Nature of the assay: Presto Blue cell growth inhibition assay. It counts as cell-based, human. The protocol: Cells (15×10^4/mL) were maintained in RPMI medium supplemented with 10% fetal bovine serum (FBS), […], 100 U/ml penicillin, and […] streptomycin solution at 37° C. in a 5% CO2 incubator. Cells were transferred to a freshly prepared medium twice weekly. For the tumor cell growth experiments, BxPC-3 cells (15×10^4/mL) were incubated in the culture medium with control, 5, 10, or 20 nM namodenoson in 96-well microtiter plates for 24 h at 37° C. in a 5% CO2 incubator, after which cell growth inhibition was determined using the Presto Blue assay (Thermo Fisher Scientific, Waltham, MA, USA) used as per the manufacturer's instructions. Experiments under the same conditions with 20 nM namodenoson were also conducted with and without 20 nM of the A3AR antagonist MRS1523 (diluted to the final concentration in RPMI medium).

Assay [2] concerns BxPC-3 cells. Nature of the assay: 3H-thymidine incorporation assay (cell growth). It is filed as cell-based. As to conditions: Homo sapiens, 48 h, read-out: percentage of growth inhibition of BxPC-3 cells. The protocol:
Cells (15×10^4/mL) were maintained in RPMI medium supplemented with 10% fetal bovine serum (FBS), […], 100 U/ml penicillin, and […] streptomycin solution at 37° C. in a 5% CO2 incubator. Cells were transferred to a freshly prepared medium twice weekly. 3H-thymidine incorporation assay was used to evaluate cell growth. BxPC-3 cells (5,000 cells/well) were incubated (37° C.) with CF102 (namodenoson) in different concentrations: 0.01 nM, 0.1 nM and 1 nM in a 96-well plate for 48 h. Each well was pulsed with 1 μCi 3H-thymidine for the last 24 h. The cells were harvested, and the 3H-thymidine uptake was determined in an LKB liquid scintillation counter (LKB).
In general terms: Incorporation of labelled thymidine or its analogues reports DNA synthesis.

Assay [3] concerns BxPC-3 cells. Briefly: Western blot analysis of regulatory protein expression. It counts as cell-based, human. Particulars: 20 nM namodenoson, 24 h, vs. control. The protocol:
Western blot analyses were performed using the same culture conditions as the Presto Blue experiments in 10 cm plates with 20 nM namodenoson or control. After incubation for 24 h at 37° C. in a 5% CO2 incubator, the cell samples were rinsed with ice-cold PBS and transferred to ice-cold RIPA buffer with 1× protease and phosphatase inhibitor cocktail for 20 min. Cell debris was removed using centrifugation at 4° C. for 10 min, at 7500×g. The supernatant was utilized for the Western blot analyses. Protein concentrations were determined using the NanoDrop assay (ThermoFisher Scientific, Waltham, MA, USA). Equal amounts of the sample (50 μg) were separated by SDS-PAGE, using […] (Schleicher & Schuell, Keene, NH, USA). Membranes were blocked with 1% bovine serum albumin and incubated with the relevant primary antibody (dilution 1:1000) for 24 h at 4° C. Blots were then washed and incubated with the secondary antibody for 1 h at room temperature. Bands were recorded using BCIP/NBT color development kit (Promega, Madison, WI, USA).

Assay [4] has as its system BxPC-3 cells. Briefly: BxPC-3 subcutaneous tumor growth in nude mice. It is filed as in vivo, nude Balb/C mice. As to conditions: 10 μg/kg twice daily for 35 days (Day 22 to Day 57), by Day 57 from tumor inoculation. The protocol: Male nude Balb/C mice (Harlan Laboratories, Jerusalem, Israel), aged 2 months (mean weight, 25 g), received a subcutaneous flank injection of BxPC-3 cells (2.5×10^6). The mice were maintained on a standardized pelleted diet and supplied with tap water. […] Tumor width (W) and length (L) were measured twice weekly with a caliber, and tumor size was calculated (W^2×L/2).

For `CCCOC(=O)c1c(-c2ccccc2)nc(CC)c(C(=O)SCC)c1CCC` [MRS1523, reference compound], the “cell growth, % of the control” value in the assay with BxPC-3 cells [1] (20 nM MRS1523 alone, 24 h) is given as 100.8%+11.1 % of the control.
In the case of `CNC(=O)[C@H]1O[C@@H](n2cnc3c(NCc4cccc(I)c4)nc(Cl)nc32)[C@H](O)[C@@H]1O` [namodenoson, 2-chloro-N^6-(3-iodobenzyl)-adenosine-5′-N-methyl-uronamide], the inhibition at 10 pM with BxPC-3 cells [2] (0.01 nM namodenoson) was found to be 27.9%. In addition, the inhibition at 0.0001 µM with BxPC-3 cells [2] (0.1 nM namodenoson) was determined as 53.7%. In the assay with BxPC-3 cells [2] (1 nM namodenoson), the inhibition at 0.001 µM came out at 67.4%. The “cell growth, % of the control” value in the assay on BxPC-3 cells [1] (20 nM namodenoson alone, 24 h) is 45.0%+4.2 % of the control. For the same compound, the “cell growth, % of the control” value with BxPC-3 cells [1] (20 nM namodenoson plus 20 nM MRS1523, 24 h) was 81.1%+6.3 % of the control. For the same compound, the inhibition at 0.005 µM in the assay on BxPC-3 cells [1] (Homo sapiens, BXPC-3, 5 nM, 24 h, mean±SE) amounted to 49.7%. In the assay on BxPC-3 cells [1] (Homo sapiens, BXPC-3, 10 nM, 24 h, mean±SE), this compound showed an inhibition at 0.01 µM of 66.3%. In addition, the inhibition at 0.02 µM with BxPC-3 cells [1] (Homo sapiens, BXPC-3, 20 nM, 24 h, mean±SE) came out at 82.7%. In the assay on BxPC-3 cells [3], the “A3AR protein expression level” value is reported as “decrease”, the Bad expression result is listed as “upregulated”, the Bax expression result was “upregulated” and the GSK-3β expression result is “upregulation”. Further, in the assay on BxPC-3 cells [3], the NF-κB expression entry was “downregulated”, the PI3K expression entry is listed as “downregulated”, the “cyclin D1 expression level” value is “decrease” and the p-Akt expression result was “downregulated”. In addition, in the assay on BxPC-3 cells [3], the “pERK 1/2 expression level” value is recorded as “decrease”, the “pMEK 1/2 expression level” value is listed as “decrease”, the pRaf expression level result is listed as “decrease” and the β-catenin expression level entry is reported as “decrease”. Also, in the assay with BxPC-3 cells [4], the “inhibition of tumor growth vs. control” value worked out at 67.7%+15.2.
